# In patent US7045531B1, “Composition comprising a metal chelator and a method of treating amyloidosis by administering the metal chelator” (The General Hospital Corporation, priority 1997, dated 2006):
# Entries after “also recorded” stand apart in the source; their conditions may differ.
# Columns and labels:
# [1] = Metal reduction assay, Fe^3+ (BP indicator); assay type: biochemical; conditions: Fe^3+ 10 μM; PBS pH 7.4; 1 hr, 37° C.
# Method: (§1) The metal reduction assay was performed using a 96-well microtiter plate (Costar) based upon a modification of established protocols (Landers, J. W., et al., Amer. Clin. Path. 29:590 (1958); Landers. J. W. et al., Clinica Chimica Acta 3:329 (1958)). Polypeptides (10 μM) or Vitamin C (100 μM), metal ions (10 μM, Fe(NO3)3 or Cu(NO3)2), and reduced metal ion indicators, bathophenanthrolinedisulfonic acid (BP, for Fe^2+, Sigma, 200 μM) or bathocuproinedisulfonic acid (BC, for Cu^+, Sigma, […]), were coincubated in phosphate buffered saline (PBS), pH 7.4, for 1 hr at 37° C. The metal ion solutions were prepared by direct dilution in the buffer from their aqueous stocks purchased from National Institute of Standards and Technology (NIST). Absorbances were then measured at 536 nm (Fe^2+-BP complex) and 483 nm (Cu^+-BC complex), respectively, using a 96-well plate reader (SPECTRAmax 250, Molecular Devices, Calif.). In control samples, both metal ion and indicator were present to determine the background buffer signal. As a further control, both metal ion and peptide were present in the absence of indicator to estimate the contribution of light scattering due to turbidity to the absorbance reading at these wavelengths. The net absorbances (ΔA) at 536 nm or 483 nm were obtained by deducting the absorbances from these controls from the absorbances generated by the peptide and metal in the presence of the respective indicator.
# The concentrations of reduced metal ions (Fe^2+ or Cu^+) were quantified based on the formula: Fe^2+ or Cu^+ (˜M)=A*10^6/(L*M), where L is the measured equivalent vertical pathlength for a well of 300 μL volume as described in the instrument's specifications manual (0.856 cm for Fe^2+; 1.049 cm for Cu^+); M is the known molecular absorbance (M^−1 cm^−1) which is 7124 (for Fe^2+-BP complex) or 2762 (for Cu^+-BC complex).
# [2] = Metal reduction assay, Cu^2+ (BC indicator); assay type: biochemical; conditions: Cu^2+ 10 μM; PBS pH 7.4; 1 hr, 37° C.
# Method: as §1, with “Polypeptides” for “The metal reduction assay was performed using a 96-well microtiter plate (Costar) based upon a modification of established protocols (Landers, J. W., et al., Amer. Clin. Path. 29:590 (1958); Landers. J. W. et al., Clinica Chimica Acta 3:329 (1958)). Polypeptides”
# [3] = Effect of OH. scavengers on OH. generation by Vitamin C (TBARS); assay type: biochemical; conditions: scavenger 5 mM
# Method: (§2) FIGS. 16A and 16B are graphical representations showing production of the hydroxyl radical (OH.) from the incubation of Aβ in the presence of substoichiometric amounts of Fe^3+ or Cu^2+. […] All data points are means±SD, n=3.
# (§3) The Thiobarbituric Acid-Reactive Substance (TBARS) assay for incubation mixtures with Fe^3+ or Cu^2+ was performed in a 96-well microtiter format modified from established protocols (Gutteridge et al. Biochim. Biophys. Acta 759: 38–41 (1983)). Aβ peptide species (10 μM) or Vitamin C (100 μM), were incubated with Fe^3+ or Cu^2+ (1 μM) and deoxyribose (7.5 mM, Sigma) in PBS, pH 7.4. Following incubation (37° C., 1 hour), glacial (17 M) acetic acid and 2-thiobarburic acid (1%, w/v in 0.05 M NaOH, Sigma) were added and heated (100° C., 10 min). The final mixtures were placed on ice for 1–3 minutes before absorbances at 532 nm were measured. The net absorbance change for each sample were obtained by deducting the absorbance from a control sample consisting of identical chemical components except for the Vitamin C or Aβ peptides.
# Aβ1-42 = Aβ1-42 (Homo sapiens, UniProt P05067); test: Effect of OH. scavengers on OH. generation by Aβ1-42 (TBARS); assay type: biochemical; conditions: scavenger 5 mM; Fe^3+ or Cu^2+
# Aβ1-42, sequence (P05067 672-713 limits assumed): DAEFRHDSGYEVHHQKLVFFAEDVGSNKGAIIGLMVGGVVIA
# Method: as §2, §3
# [4] = test system: Aβ deposits in AD brain tissue; test: Chelator-promoted solubilization (extraction) of Aβ from AD brain homogenates, Western blot densitometry; assay type: biochemical, human; conditions: for Effect of Chelators (% change from control) upon extraction of Aβ: mean of 6 AD brain samples; for chelator concentration of peak Aβ solubilization (lower peak) / chelator concentration of peak Aβ solubilization (upper peak): titration curves
# Method: 0.5 g of prefrontal cortex was dissected and homogenized in PBS±chelator as indicated. The homogenate was then centrifuged (100,000 g) and the supernatant removed, and a sample taken for western blot assay using anti-Aβ specific antibodies after Tricine PAGE. Densitometry was performed against synthetic peptide standards.
# (§4) Suitable quantities of gray matter from each subject were minced to serve as pools of homogenous tissue. […] To obtain the soluble fraction, the homogenates were centrifuged at 100,000×g for 30 min (Beckman J180, Beckman instruments, Fullerton, Calif.) and the supernatant collected in 1 ml aliquots and stored on ice or immediately frozen at −70° C. In each experiment, all protein was precipitated from 1 ml of supernatant from each treatment group using 1:5 ice cold 10% trichloracetic acid and pelleted in a bench top microfuge (Heraeus, Osteroder, Germany) at 10,000×g. The remaining pellet was frozen at −70° C.
# Precipitated protein was subjected to SDS polyacrylamide gel electrophoresis (SDS-PAGE) on Novex pre-cast 10–20% Tris-Tricine gels followed by Western transfer onto 0.2 μm nitrocellulose membrane (Biorad, Hercules, Calif.). […] Each gel included two or more lanes containing known quantities of synthetic Aβ which served as internal reference standards. Blot images were captured by a Relisys scanner with transparency adapter (Teco Information Systems, Taiwan, ROC) and densitometry conducted using the NIH Image 1.6 program (National Institutes for Health, USA., Modified for PC by Scion Corporation, Frederick, Md.), calibrated using a step diffusion chart. For quantitation of Aβ in brain extracts, the internal reference standards of synthetic Aβ were utilized to produce standard curves from which values were interpolated.
# [5] = Cu^+ generation / metal reduction (Example 2); assay type: biochemical; conditions: 10 μM in PBS; Cu^2+ 10 μM; 30 minutes, 37° C.
# Method: This method is modified from a protocol assaying serum copper and iron (Landers, J. W., et al., Amer. J. Clin. Path. 29:590 (1958)). It is based on the fact that there are optimal visible absorption wavelengths of 483 nm and 535 nm for Cu^+ complexed with bathocuproinedisulfonic (BC) anion and Fe^2+ coordinated by bathophenanthrolinedisulfonic (BP) anion, respectively.
# Aβ (10 μM in PBS, pH 7.4 or 6.8, as shown) was incubated for 30 minutes (37° C.) in the presence of Cu^2+ 10 μM±Zn^2+ 10 μM). Cu^+ levels (n=3, ±SD) were assayed against a standard curve.
# [6] = test system: Aβ deposits in age-matched control / healthy brain tissue; test: Chelator-promoted solubilization of Aβ from non-AD control brain tissue, Western blot; assay type: biochemical, human; conditions: chelator 2 mM
# Excerpt: Using the same technique, zinc-mediated assembly of Aβ in normal brains was shown. FIGS. 20A and 20B show sedimentable Aβ deposits in healthy brain tissue. The effects of chelators in enhancing Aβ extraction from brain homogenates is also observed in normal tissue. FIG. 20A illustrates a western blot with anti-Aβ antibody of material extracted from an individual with no history of neurological disorder. T=TPEN, E=EGTA, B=bathocuproine.
# as §4
# Precipitated protein was subjected to SDS polyacrylamide gel electrophoresis (SDS-PAGE) on Novex pre-cast 10–20% Tris-Tricine gels followed by Western transfer onto 0.2 μm nitrocellulose membrane (Biorad, Hercules, Calif.). Aβ was detected using the WO2, G210 or G211 monoclonal antibodies (Ida, N. et al., J. Biol. Chem. 271:22908 (1996)) in combination with HRP-conjugated rabbit anti-mouse IgG (Dako, Denmark), and visualized using chemiluminescence (ECL, Amersham Life Science, Little Chalfont, Buckinghamshire, UK). Each gel included two or more lanes containing known quantities of synthetic Aβ which served as internal reference standards. […] For quantitation of Aβ in brain extracts, the internal reference standards of synthetic Aβ were utilized to produce standard curves from which values were interpolated.
# [7] = chelator 2 mM, mean of AD subjects 1-6
molecule,measurement,setting,value
"Aβ1-28: Aβ fragment 1-28, purchased",available Fe^3+ reduced,[1],did not significantly facilitate the reduction of Fe^3+
same,available Cu^2+ reduced,[2],reduced no Cu^2+
OC[C@@H](O)[C@@H](O)[C@H](O)[C@H](O)CO [Mannitol],effect on generation of OH. by Vitamin C,[3]; in the presence of Fe^3+,suppressed
same,effect on generation of OH. by Aβ1-42,Aβ1-42,neither were able to quench
Aβ1-42: synthetic human Aβ1-42 peptide,available Fe^3+ reduced,[1],50%
O=C(O)CN(CCOCCOCCN(CC(=O)O)CC(=O)O)CC(=O)O [EGTA],Effect of Chelators (% change from control) upon extraction of Aβ,[4]; chelator 0.1 mM,207%
same,effect on Aβ signal,[4]; chelator 2 mM,virtually abolished the signal for Aβ; also recorded: always produced a diminution in Aβ signal
same,Effect of Chelators (% change from control) upon extraction of Aβ,[4]; chelator 2.0 mM,46%
same,chelator concentration of peak Aβ solubilization (lower peak),[4],~0.004 mM
same,chelator concentration of peak Aβ solubilization (upper peak),[4],~0.1 mM
"O=C1O[C@H]([C@@H](O)CO)C(O)=C1O [Vitamin C, ascorbic acid]",available Fe^3+ reduced,[1],15%
same,available Cu^2+ reduced,[2],reduced Cu^2+ efficiently
"C[S+](C)[O-] [DMSO, dimethyl sulfoxide]",effect on generation of OH. by Vitamin C,[3]; in the presence of Cu^2+,suppressed
same,effect on generation of OH. by Vitamin C,[3]; in the presence of Fe^3+,suppressed
same,effect on generation of OH. by Aβ1-42,Aβ1-42,neither were able to quench
insulin: histidine-containing peptide that can bind copper and zinc,Cu^2+ reduction / redox reactivity,[5],no Cu^2+ reduction
same,available Fe^3+ reduced,[1],did not significantly facilitate the reduction of Fe^3+
same,available Cu^2+ reduced,[2],10%
"c1ccc(CN(CCN(Cc2ccccn2)Cc2ccccn2)Cc2ccccn2)nc1 [TPEN, N,N,N′,N′-tetrakis [2-pyridyl-methyl]ethylenediamine]","Extractable Aβ (% of total), mean X",[6]; mean of AC subjects 1-5,(16.7) %
same,"Extractable Aβ, mean X",[6]; mean of AC subjects 1-5,0.40 µg/g
same,X C/PBS,"[6]; mean with chelator over mean with PBS, AC",1.6
same,mean increase in solubilized Aβ over PBS alone,[4]; 6 AD brains,around 2 fold
same,Effect of Chelators (% change from control) upon extraction of Aβ,[4]; chelator 0.1 mM,182%
same,Effect of Chelators (% change from control) upon extraction of Aβ,[4]; chelator 2.0 mM,241%
same,"Extractable Aβ (% of total), mean X",[4]; [7],(4.6) %
same,"Extractable Aβ, mean X",[4]; [7],2.73 µg/g
same,X C/PBS,"[4]; chelator 2 mM, mean with chelator over mean with PBS, AD",2.60
same,chelator concentration of peak Aβ solubilization (lower peak),[4],~0.004 mM
same,chelator concentration of peak Aβ solubilization (upper peak),[4],~0.1 mM
